Series [1] relates to HL-60 cells, a promyelocytic leukemia cell line. Nature of the series: cytotoxicity against HL-60 cells (trypan blue exclusion, cell counts after 72 h). The format is cell-based. As to conditions: 100 nM to 0.1 nM, 0.5% DMSO. As to the method:
(§1) 18. To verify their potential as prodrugs, two taxol esters, taxol 2′-chloroacetate (2) and taxol 2′-acrylate (3), were tested for cytotoxicity against HL-60 cells, a promyelocytic leukemia cell line, and MOLT-4 cells, a lymphoblastic leukemia cell line.^20 Both derivatives had IC50 values about ten times higher than that of taxol for each cell line.
(§2) 20. Cells were seeded in 96-well plates at densities of 30,000 cells/well and grown in RPMI-1640 medium containing 10% bovine calf serum at 37° C. for 24 h. The medium was then replaced with fresh medium containing the taxol esters (excluding taxol, which had been removed by preparative TLC) dissolved in DMSO at final concentrations ranging from 100 nM to 0.1 nM. The final concentration of DMSO in the cell medium was 0.5%. After 72 h, samples were removed for cell counts. Total cell number and viability were determined by trypan blue exclusion and manual cell counting on a hemacytometer.

Series [2] has as its system MOLT-4 cells, a lymphoblastic leukemia cell line. Nature of the series: cytotoxicity against MOLT-4 cells (trypan blue exclusion, cell counts after 72 h). It counts as cell-based. Particulars: 100 nM to 0.1 nM, 0.5% DMSO. As to the method: as §1, §2
The next series in a line: solubility in water. As to conditions: for solubility greater than that of taxol: relative to taxol, rounded figures of b160; for increase of water solubility relative to taxol: relative to taxol (<4 μg/ml).

Some results are limits rather than exact numbers.

The term solubility denotes the concentration that dissolves in the medium under given conditions. High values mean a readily soluble substance, low ones a poorly soluble substance.

With `CC(=O)OC1C(=O)C2(C)C(O)CC3OCC3(OC(C)=O)C2C(OC(=O)c2ccccc2)C2(O)CC(OC(=O)C(OC(=O)CCl)C(NC(=O)c3ccccc3)c3ccccc3)C(C)=C1C2(C)C` (stereo not drawn) [compound 2, taxol 2′-chloroacetate], the “IC50 relative to that of taxol” value in series [1] and in series [2] was “about ten” in each case.

Consider `C=CC(=O)OC(C(=O)OC1CC2(O)C(OC(=O)c3ccccc3)C3C4(OC(C)=O)COC4CC(O)C3(C)C(=O)C(OC(C)=O)C(=C1C)C2(C)C)C(NC(=O)c1ccccc1)c1ccccc1` (stereo not drawn) [compound 3, Taxol 2′-acrylate], for which the “IC50 relative to that of taxol” value in series [1] and in series [2] was “about ten” each time.

Consider `CC(=O)O[C@H]1C(=O)[C@@]2(C)C([C@H](OC(=O)c3ccccc3)[C@]3(O)C[C@H](OC(=O)[C@H](OC(=O)CCCCC(=O)OCC4OC(O)C(O)C(O)C4O)[C@@H](NC(=O)c4ccccc4)c4ccccc4)C(C)=C1C3(C)C)[C@]1(OC(C)=O)CO[C@@H]1C[C@@H]2O` (stereo partly drawn) [taxol 2′-(adipoyl)glucose, Taxol 2′-(adipoyl) glucose], for which the “solubility greater than that of taxol” value in “solubility in water” was determined as 60 times. Moreover, the “increase of water solubility relative to taxol” value in “solubility in water” (water) worked out at 58 fold.

`CC(=O)O[C@H]1C(=O)[C@@]2(C)C([C@H](OC(=O)c3ccccc3)[C@]3(O)C[C@H](OC(=O)[C@H](OC(=O)CCCCC(=O)O)[C@@H](NC(=O)c4ccccc4)c4ccccc4)C(C)=C1C3(C)C)[C@]1(OC(C)=O)CO[C@@H]1C[C@@H]2O` (stereo partly drawn) [taxol 2′-adipic acid, Taxol 2′-adipic acid]: the “solubility greater than that of taxol” value in “solubility in water” is 1,700 times. Moreover, the “increase of water solubility relative to taxol” value in the series “solubility in water” (water) was determined as 1625 fold.

As to `CC(=O)O[C@H]1C(=O)[C@@]2(C)[C@H]([C@H](OC(=O)c3ccccc3)[C@]3(O)C[C@H](OC(=O)[C@H](O)[C@@H](NC(=O)c4ccccc4)c4ccccc4)C(C)=C1C3(C)C)[C@]1(OC(C)=O)CO[C@@H]1C[C@@H]2O` [taxol], the solubility in the series “solubility in water” (water) was under 4 µg/mL.

For the origin of these results see US6465625B1, “Taxol derivatives” (Albany Molecular Research, Inc., priority 1995, dated 2002).
